# In the OligoGym collection:
# Where “and” joins values, the source holds several entries; their conditions need not be identical. Equal entries are not always repeated. After the bases stand the sugars from the 5' end (letter, count) and the backbone: PS all phosphorothioate, else s phosphorothioate and o phosphodiester by linkage. Methylation of C is not given here. e = 2'-O-(2-methoxyethyl) (MOE); d = 2'-deoxy (DNA)
# Target: DGAT2
# Settings: ASO
Sequence,"target mRNA inhibition (HepG2, 2.5 µM)","target mRNA inhibition (HepG2, 10 µM)","target mRNA inhibition (HepG2, 0.12 µM)","target mRNA inhibition (HepG2, 20 µM)"
"GAAATCTGAGTGCTGCTAAC (sugars e5 d10 e5, PS)",71%,91%,–,–
"GAACTTCTTCTGGACCCATC (sugars e5 d10 e5, PS)",–,–,19%,–
"GAAGGCACAGAAAAGTGAGG (sugars e5 d10 e5, PS)",–,–,11%,–
"GAAGGCACCCAGGCCCATGA (sugars e5 d10 e5, PS)",–,–,38%,–
"GACAAGCGACAGCCCTGTGC (sugars e5 d10 e5, PS)",75%,79%,–,–
"GACAGCTGTGATGACTTCCC (sugars e5 d10 e5, PS)",73%,87%,–,–
"GACAGGACCCACTGGAGCAC (sugars e2 d13 e5, PS)",–,–,73%,–
"GACAGGACCCACTGGAGCAC (sugars e3 d14 e3, PS)",–,–,58%,–
"GACCCACTGGAGCACTGAGA (sugars e3 d14 e3, PS)",–,–,56%,–
"GACCCACTGGAGCACTGAGA (sugars e5 d10 e5, PS)",–,–,69%,–
"GACCCACTGTGACCTCCTGC (sugars e5 d10 e5, PS)",–,–,25%,–
"GACCTATTGAGCCAGGTGAC (sugars e5 d10 e5, PS)",–,–,36%,–
"GACTTGCCCAGCAACCCATC (sugars e5 d10 e5, PS)",77%,54%,–,–
"GAGAAGAGGTCCTGGAGGGC (sugars e5 d10 e5, PS)",–,–,10%,–
"GAGCAGATCTCAAAATCTCG (sugars e5 d10 e5, PS)",72%,87%,–,–
"GAGCTCAGAGACTCAGCCGC (sugars e2 d13 e5, PS)",27%,42%,89%,61%
"GAGCTCTCAAGTCTTCC (sugars e3 d10 e4, PS)",55% and 64%,86% and 87%,–,–
"GAGTAAGGGTATTCTGCTCA (sugars e5 d10 e5, PS)",–,91% and 93% and 96%,–,–
"GAGTAGGGCACCAGCCCCCA (sugars e5 d10 e5, PS)",–,–,0%,–
"GAGTAGTCAAAGGTGGCTTC (sugars e5 d10 e5, PS)",66%,78%,–,–
"GATGCTCCAGGTGGGCCAGA (sugars e5 d10 e5, PS)",52%,82%,–,–
"GATGGCACTGCAGGCCACTC (sugars e5 d10 e5, PS)",–,–,28%,–

Sequence,"target mRNA inhibition (HepG2, 2.5 µM)","target mRNA inhibition (HepG2, 10 µM)","target mRNA inhibition (HepG2, 0.12 µM)","target mRNA inhibition (HepG2, 20 µM)"
"GATTCAAATCTGTGTGACCT (sugars e5 d10 e5, PS)",64% and 83%,89% and 92%,–,–
"GCAATGCCAATGCCTAG (sugars e3 d10 e4, PS)",69% and 80%,78% and 87%,–,–
"GCAATGTTGCCATCATA (sugars e3 d10 e4, PS)",69% and 76%,90% and 95%,–,–
"GCACCATTTTCACAAGGAGA (sugars e5 d10 e5, PS)",79% and 72%,85% and 81%,–,–
"GCACTAAGCTAGGCACACCC (sugars e5 d10 e5, PS)",62%,90%,–,–
"GCACTGACATGGTAAGTCCT (sugars e5 d10 e5, PS)",87% and 79%,93% and 89%,–,–
"GCACTGCAGGCCACTCCCAG (sugars e5 d10 e5, PS)",–,–,37%,–
"GCAGATGGACAGGTGATTCT (sugars e5 d10 e5, PS)",69%,91%,–,–
"GCAGCCTGGACAAGTCCTGC (sugars e3 d14 e3, PS)",48% and 59%,73%,83%,81%
"GCAGCCTGGACAAGTCCTGC (sugars e5 d10 e5, PS)",–,–,70%,–
"GCAGGTTGTGTGTCTTCACC (sugars e2 d13 e5, PS)",–,–,56%,–
"GCAGGTTGTGTGTCTTCACC (sugars e3 d14 e3, PS)",–,–,69%,–
"GCATGGAGCTCAGAGACTCA (sugars e5 d10 e5, PS)",–,–,69%,–
"GCATTCTTGCCAGGCATGGA (sugars e5 d10 e5, PS)",41%,74%,–,–
"GCATTGCCACTCCCATTCTT (sugars e5 d10 e5, PS)",–,–,–,94% and 91% and 95%
"GCCACAGGGCCCTTTCCAGA (sugars e5 d10 e5, PS)",68%,92%,–,–
"GCCACCTGCTTTGGAACTAA (sugars e5 d10 e5, PS)",–,–,41%,–
"GCCACTCAGCCTTGGAGCCA (sugars e5 d10 e5, PS)",90% and 83%,86% and 85%,–,–
"GCCAGGCCCCTTCTGAAGAG (sugars e5 d10 e5, PS)",–,–,36%,–
"GCCAGGTAAGGCCGTATGCC (sugars e2 d13 e5, PS)",–,–,66%,–
"GCCATCATACTAGACTATGC (sugars e5 d10 e5, PS)",88% and 81%,91% and 90%,–,–
"GCCCAGTTTCGGACCCACTG (sugars e5 d10 e5, PS)",37%,46%,–,65%

Sequence,"target mRNA inhibition (HepG2, 2.5 µM)","target mRNA inhibition (HepG2, 10 µM)","target mRNA inhibition (HepG2, 0.12 µM)","target mRNA inhibition (HepG2, 20 µM)"
"GCCTGGACAAGTCCTGCCCA (sugars e5 d10 e5, PS)",–,–,70% and 86%,81% and 88%
"GCGACAGCCCTGTGCCAGCC (sugars e5 d10 e5, PS)",72%,99%,–,–
"GCGATTCACTGAGGACC (sugars e3 d10 e4, PS)",–,68% and 86%,–,–
"GCGCAGGACCCCGGAGTAGG (sugars e3 d14 e3, PS)",–,–,71%,–
"GCGGCAGAGCCAGGACTGAA (sugars e5 d10 e5, PS)",–,–,35%,–
"GCTACTGGCATTGCTCCTCC (sugars e5 d10 e5, PS)",42%,81%,–,–
"GCTAGAGGCTGAGTTCTGCT (sugars e5 d10 e5, PS)",85% and 87%,90% and 92%,–,–
"GCTATTCATTTTTCTGAGCC (sugars e5 d10 e5, PS)",–,–,47%,–
"GCTCAGAGACTCAGCCGCAC (sugars e3 d14 e3, PS)",–,–,69%,–
"GCTCAGATCACTCTGCACAG (sugars e5 d10 e5, PS)",77% and 81% and 82%,90% and 86% and 89%,–,–
"GCTGCATCCATGTCATCAGC (sugars e2 d16 e2, PS)",–,–,53%,–
"GCTGCATCCATGTCATCAGC (sugars e5 d10 e5, PS)",–,–,43%,–
"GCTGTGATGACTTCCCAGGG (sugars e5 d10 e5, PS)",75%,86%,–,–
"GCTTTAATCCAGGATTGTCA (sugars e5 d10 e5, PS)",73% and 76% and 82%,91% and 88% and 93%,–,–
"GGAAAACTTAGGCATGCTTC (sugars e5 d10 e5, PS)",64% and 72%,90% and 87%,–,–
"GGAAACTTTCCCACAGTCAG (sugars e5 d10 e5, PS)",69%,94%,–,–
"GGAAAGGCACAGGCTTTGGG (sugars e5 d10 e5, PS)",57% and 66%,92% and 97%,–,–
"GGACAGCTGTGATGACTTCC (sugars e5 d10 e5, PS)",55%,76%,–,–
"GGACCCACTGGAGCACT (sugars e3 d10 e4, PS)",57%,93%,–,–
"GGACCCACTGGAGCACTGAG (sugars e2 d13 e5, PS)",24%,28%,86%,67%
"GGACCCACTGGAGCACTGAG (sugars e3 d14 e3, PS)",29%,42%,82%,71%
"GGAGCTCAGAGACTCAGCCG (sugars e5 d10 e5, PS)",–,–,73%,–

Sequence,"target mRNA inhibition (HepG2, 2.5 µM)","target mRNA inhibition (HepG2, 10 µM)","target mRNA inhibition (HepG2, 0.12 µM)","target mRNA inhibition (HepG2, 20 µM)"
"GGAGGAGTTCTCGAATATCC (sugars e5 d10 e5, PS)",84%,74%,–,–
"GGATGGTGATGGGCTCTCCC (sugars e5 d10 e5, PS)",–,–,67%,–
"GGCAGATAACCACAGCGATA (sugars e5 d10 e5, PS)",75%,84%,–,–
"GGCCAAGGACAGAGGTTCAA (sugars e5 d10 e5, PS)",60%,87%,–,–
"GGCTCCGGTCAGCCTCGGCC (sugars e5 d10 e5, PS)",–,–,0%,–
"GGCTGAGTCTGTGCTGCATC (sugars e5 d10 e5, PS)",85% and 65%,81%,–,–
"GGGCAAAAAGTGAATCATCT (sugars e5 d10 e5, PS)",39%,72%,–,–
"GGGTCAAGGTCACTCAGCCA (sugars e5 d10 e5, PS)",–,–,33%,–
"GGGTCATTTTGGAGACCACA (sugars e5 d10 e5, PS)",59%,83%,–,–
"GGGTTATTGCAACCACTAGG (sugars e5 d10 e5, PS)",74%,80%,–,–
"GGTAAGGCCGTATGCCTGGG (sugars e2 d13 e5, PS)",–,–,53%,–
"GGTCTTTTTGGCTGCCCTGC (sugars e5 d10 e5, PS)",81% and 84%,87% and 90%,–,–
"GGTGATGGGCTTGGAGTAGG (sugars e5 d10 e5, PS)",–,–,36%,–
"GGTTCCGCAGGGTGACTGCA (sugars e5 d10 e5, PS)",48%,68%,–,–
"GGTTCTTGTCCTGGTCCCAG (sugars e5 d10 e5, PS)",75% and 77%,90% and 94%,–,–
"GGTTGTGTGTCTTCACCAGC (sugars e3 d14 e3, PS)",–,–,70%,–
"GGTTTACTGCATAGCTGAGC (sugars e5 d10 e5, PS)",79% and 72%,86% and 76%,–,–
"GTAAGCCTCGGTGTCCTCTC (sugars e5 d10 e5, PS)",91%,85%,–,–
"GTACACTTCATTCTCTCCAA (sugars e5 d10 e5, PS)",–,–,82%,–
"GTATCCTTAAAGCAGGGCCC (sugars e5 d10 e5, PS)",84% and 81%,85% and 89%,–,–
"GTCAAACACCAGCCAAGTGA (sugars e5 d10 e5, PS)",–,–,15%,–
